Legend:
[1] = biological target: T1, mutein streptavidin designated Strep-tactin® (e.g. containing the sequence set forth in SEQ ID NO: 4) (Streptomyces avidinii, UniProt P22629, E68V/S69T/V71R); conditions: general statement in the description, no experiment described; read-out: binding affinity KD for Strep-tactin®; cited from earlier work
T1 construct: N-terminal methionine in place of Ala13 (N)

[2] = tested on: CD8+ T cells and CD4+ T cells; assay: CD27/CCR7 phenotypic subset profile by flow cytometry; type: cell-based, human
Procedure: (§1) CD4+ and CD8+ T cells were isolated by immunoaffinity-based enrichment from leukapheresis samples from human donor subjects. At day 1, isolated CD4+ and CD8+ T cells were mixed 1:1 and stimulated with an anti-CD3/anti-CD28 oligomeric stimulatory reagent generated as described in Example 1 in serum-free media supplemented with recombinant IL-2 (100 IU/mL), recombinant IL-7 (600 IU/mL), and recombinant IL-15 (100 IU/mL) with or without 1 μM of 2-(3-hydroxyphenyl)-9-(2-isopropylphenyl)-8-oxo-8,9-dihydro-7H-purine-6-carboxamide (Compound 63). The T cells cultured with our without Compound 63 were incubated overnight (approximately 24 hr) at 37° C., and were then transduced in serum-free culture media with our without Compound 63 ([…]) with a lentiviral vector encoding an anti-CD19 CAR. The CAR contained an scFv antigen-binding domain specific for CD19 (derived from FMC63), a CD28 transmembrane region, a 4-1BB costimulatory signaling region, and a CD3-zeta derived intracellular signaling domain. Following transduction, the cells were incubated in serum free media without recombinant cytokines (basal media) and with or without Compound 63 (1 mM) and allowed to incubate at about 37.0° C. in an incubator for up to 96 hours after initiation of the stimulation with the anti-CD3/anti-CD28 oligomeric stimulatory reagent (until day 5 of the process). […]

CAR-T cells = assay: Intracellular caspase expression in thawed CAR-T cells; type: cell-based, human; conditions: vs cells not incubated with compound
Procedure: as §1

CD4+ and CD8+ T cells [3] = assay: Viability and live cell count of engineered T cell composition; type: cell-based, human; conditions: with vs without compound during production
anti-CD19 CAR T cells = assay: Long-term stimulation with anti-idiotype antibody beads, expansion and survival; type: cell-based, human; conditions: 12 days, anti-ID antibody beads
Procedure: as §1, with “domain.” for “domain. Following transduction, the cells were incubated in serum free media without recombinant cytokines (basal media) and with or without Compound 63 (1 mM) and allowed to incubate at about 37.0° C. in an incubator for up to 96 hours after initiation of the stimulation with the anti-CD3/anti-CD28 oligomeric stimulatory reagent (until day 5 of the process).”
To further assess the functional activity of the cells, the generated T cell compositions were stimulated long-term over 12 days with beads conjugated with an anti-idiotype (ID) antibody against the anti-CD19 CAR, and expansion and survival of the cells were monitored (FIG. 17F, left panel) and total expansion metric calculated by area under the growth curve (FIG. 17F, right panel, AUC).

mTOR = assay: Intracellular S6 phosphorylation in engineered T cells; type: cell-based, human; conditions: 1 μM (also printed 1 mM) during production; live CD8+ T cells
Procedure: CD4+ and CD8+ T cells were isolated by immunoaffinity-based enrichment from leukapheresis samples from human donor subjects. […] The T cells cultured with our without Compound 63 were incubated overnight (approximately 24 hr) at 37° C., and were then transduced in serum-free culture media with our without Compound 63 ([…]) with a lentiviral vector encoding an anti-CD19 CAR. […] Following transduction, the cells were incubated in serum free media without recombinant cytokines (basal media) and with or without Compound 63 (1 mM) and allowed to incubate at about 37.0° C. in an incubator for up to 96 hours after initiation of the stimulation with the anti-CD3/anti-CD28 oligomeric stimulatory reagent (until day 5 of the process). […] Following incubation CD4+ and CD8+ T cells from each donor were harvested, formulated, and cryofrozen. The cryofrozen engineered CD4+ and CD8+ T cells were thawed, and T cells were assessed for intracellular S6 phosphorylation, a ribosomal protein and marker of mTOR inhibition, and co-stained for surface expression of CD4 or CD8 and for CCR7 and CD45RA as markers of memory subsets. pS6 expression in live CD8+ T cells by memory subsets was shown by the expression of CCR7 and CD45RA as shown in FIG. 16A.

CD4+ and CD8+ T cells [4] = assay: Intracellular cytokines after PMA/Ionomycin and Golgi inhibitor; type: cell-based, human; conditions: PMA/Ionomycin stimulation; engineered CD8+ and CD4+ T cells
Procedure: as §1

T1 sequence (P22629 other isoform, or with tags, fused parts or gaps E68V/S69T/V71R): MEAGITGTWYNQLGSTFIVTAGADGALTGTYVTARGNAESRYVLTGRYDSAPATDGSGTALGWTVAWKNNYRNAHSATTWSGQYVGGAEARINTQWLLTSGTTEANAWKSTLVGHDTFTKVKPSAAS

Compound | Kd [1] [nM] | phenotypic subset profile by CD27 and/or CCR7 expression [2] | intracellular caspase expression (CAR-T cells) | percentage of viable cells over time (CD4+ and CD8+ T cells [3]) | total number of viable cells over time (CD4+ and CD8+ T cells [3]) | function (expansion, AUC) following long-term CAR-specific stimulation (anti-CD19 CAR T cells) | pS6 mean fluorescence intensity of memory T cell subsets (Temra, Tem, Tcm) (mTOR) | level of intracellular cytokines IL2, IFNg, or TNF (CD4+ and CD8+ T cells [4])
WSHPQFEK [Strep-tag® II] | ~1000 | – | – | – | – | – | – | –
CC(C)c1ccccc1-n1c(=O)[nH]c2c(C(N)=O)nc(-c3cccc(O)c3)nc21 [Compound 63, 2-(3-hydroxyphenyl)-9-(2-isopropylphenyl)-8-oxo-8,9-dihydro-7H-purine-6-carboxamide] | – | did not substantially alter | less | no significant effect | no significant effect | improved function | decreased | substantially improved
